Counter-ions that a name gives are not always drawn.
What was measured:
Type in all cases: biochemical
[1] = molecular target: human JAK2 catalytic kinase (JH1) domain (Homo sapiens (Human), UniProt O60674); assay: ADP-Glo Kinase Assay, recombinant JAK2 catalytic kinase (JH1) domain; conditions: recombinant JH1 domain 0.2 nM, 15 μM ATP, JAK3-974 peptide, mean, read-out: JAK2 biochem IC50 (nM) Mean
Outline: (§1)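 Reactions ran 100 min with 50 μM substrate peptide (JAK3-342 for JAK1 at 4 nM enzyme; JAK3-974 for JAK2 0.2 nM, JAK3 0.3 nM, TYK2 2 nM), and ADP formed was read by ADP-Glo luminescence. Eleven-point 3-fold series from 10 or 1 μM; IC50 fitted by 4-parameter logistic model.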

[2] = molecular target: human JAK1 catalytic kinase (JH1) domain (Homo sapiens (Human), UniProt P23458); assay: ADP-Glo Kinase Assay, recombinant JAK1 catalytic kinase (JH1) domain; conditions: recombinant JH1 domain 4 nM, 35 μM ATP, JAK3-342 peptide, mean, read-out: JAK1 biochem IC50 (nM) Mean
Sequence of human JAK1 catalytic kinase (JH1) domain (P23458 875-1153): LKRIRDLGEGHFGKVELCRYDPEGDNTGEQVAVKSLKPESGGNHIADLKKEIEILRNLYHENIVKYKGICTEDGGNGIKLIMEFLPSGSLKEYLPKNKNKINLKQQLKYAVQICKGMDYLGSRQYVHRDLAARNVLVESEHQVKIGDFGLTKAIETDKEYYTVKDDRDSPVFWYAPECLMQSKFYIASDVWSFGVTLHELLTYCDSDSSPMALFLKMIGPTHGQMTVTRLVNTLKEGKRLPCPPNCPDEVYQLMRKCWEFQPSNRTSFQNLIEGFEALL
Outline: as §1

[3] = molecular target: human TYK2 catalytic kinase (JH1) domain (Homo sapiens (Human), UniProt P29597); assay: ADP-Glo Kinase Assay, recombinant TYK2 catalytic kinase (JH1) domain; conditions: recombinant JH1 domain 2 nM, 10 μM ATP, JAK3-974 peptide, mean, read-out: TYK2 biochem IC50 (nM) Mean
Sequence of human TYK2 catalytic kinase (JH1) domain (P29597 897-1176): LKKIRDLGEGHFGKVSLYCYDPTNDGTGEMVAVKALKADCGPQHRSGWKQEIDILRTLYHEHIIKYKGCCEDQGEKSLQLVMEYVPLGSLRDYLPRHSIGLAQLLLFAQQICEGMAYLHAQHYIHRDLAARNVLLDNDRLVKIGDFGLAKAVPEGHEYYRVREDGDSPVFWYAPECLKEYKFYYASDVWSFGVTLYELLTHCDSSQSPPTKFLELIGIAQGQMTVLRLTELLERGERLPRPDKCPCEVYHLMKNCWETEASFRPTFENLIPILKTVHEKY
Outline: as §1

[4] = molecular target: human JAK3 catalytic kinase (JH1) domain (Homo sapiens (Human), UniProt P52333); assay: ADP-Glo Kinase Assay, recombinant JAK3 catalytic kinase (JH1) domain; conditions: recombinant JH1 domain 0.3 nM, 4 μM ATP, JAK3-974 peptide, mean, read-out: JAK3 biochem IC50 (nM) Mean
Sequence of human JAK3 catalytic kinase (JH1) domain (P52333 822-1111): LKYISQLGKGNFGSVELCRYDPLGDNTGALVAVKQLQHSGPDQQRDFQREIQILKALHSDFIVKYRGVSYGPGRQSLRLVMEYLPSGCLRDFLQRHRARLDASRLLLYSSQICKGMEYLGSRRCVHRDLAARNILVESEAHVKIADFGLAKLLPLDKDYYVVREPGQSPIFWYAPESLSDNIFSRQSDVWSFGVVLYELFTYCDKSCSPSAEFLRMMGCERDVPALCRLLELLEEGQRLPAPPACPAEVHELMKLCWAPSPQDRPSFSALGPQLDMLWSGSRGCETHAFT
Outline: as §1

Sequence of human JAK2 catalytic kinase (JH1) domain (O60674 849-1124): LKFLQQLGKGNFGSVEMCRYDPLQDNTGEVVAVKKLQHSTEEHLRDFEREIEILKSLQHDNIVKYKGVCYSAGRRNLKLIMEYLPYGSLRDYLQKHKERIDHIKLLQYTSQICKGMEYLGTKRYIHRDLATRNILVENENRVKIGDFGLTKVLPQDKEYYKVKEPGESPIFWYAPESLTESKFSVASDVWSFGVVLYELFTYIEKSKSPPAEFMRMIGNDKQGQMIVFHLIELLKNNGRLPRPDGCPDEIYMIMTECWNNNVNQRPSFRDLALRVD

Row | Structure (SMILES) | IC50 [1] | IC50 [2] | IC50 [3] | IC50 [4]
1 | CC1(C)C(C(=O)N2C3CCC2CN(c2ncnn4cc(-c5cnn(C(F)F)c5)cc24)C3)C1(F)F (stereo not shown) [Example 13, (2,2-difluoro-3,3-dimethylcyclopropyl)(3-(6-(1-(difluoromethyl)-1H-pyrazol-4-yl)pyrrolo[2,1-f][1,2,4]triazin-4-yl)-3,8-diazabicyclo[3.2.1]octan-8-yl)methanone] | 9150 nM | 3360 nM | 688 nM | 7220 nM
2 | Cn1cc(-c2cc3c(N4CC5CCC(C4)N5C(=O)[C@H]4C[C@H]4C#N)ncnn3c2)cn1 (racemic) [Example 65, Rac-(1R,2S)-2-(3-(6-(1-methyl-1H-pyrazol-4-yl)pyrrolo[2,1-f][1,2,4]triazin-4-yl)-3,8-diazabicyclo[3.2.1]octane-8-carbonyl)cyclopropane-1-carbonitrile] | 9840 nM | 6090 nM | 1210 nM | 6790 nM
3 | COc1cc(-c2cc3c(N4CC5CCC(C4)N5S(=O)(=O)C4CC4)ccnn3c2)ccn1 [Example 190] | 280 nM | 324 nM | 64.4 nM | 2750 nM
4 | Cc1ccc(-c2cc3c(N4CC5CCC(C4)N5C(=O)[C@@H]4C[C@H]4F)ncnc3[nH]2)cn1 [Example 224, ((1S,2R)-2-fluorocyclopropyl)(3-(6-(6-methylpyridin-3-yl)-7H-pyrrolo[2,3-d]pyrimidin-4-yl)-3,8-diazabicyclo[3.2.1]octan-8-yl)methanone] | 462 nM | 234 nM | 19.2 nM | 1100 nM
5 | Cc1ccc(-c2nc3c(N4CC5CCC(C4)N5C(=O)[C@@H]4C[C@H]4F)ccnc3[nH]2)cn1 [Example 205, ((1S,2R)-2-fluorocyclopropyl)(3-(2-(6-methylpyridin-3-yl)-3H-imidazo[4,5-b]pyridin-7-yl)-3,8-diazabicyclo[3.2.1]octan-8-yl)methanone] | 22 nM | 25 nM | 4.6 nM | 246 nM
6 | O=C([C@H]1C[C@@H]1F)N1C2CCC1CN(c1ncnn3cc(-c4cnn(C(F)F)c4)cc13)C2 (racemic) [Example 54, Rac-(3-(6-(1-(difluoromethyl)-1H-pyrazol-4-yl)pyrrolo[2,1-f][1,2,4]triazin-4-yl)-3,8-diazabicyclo[3.2.1]octan-8-yl)((1R,2S)-2-fluorocyclopropyl)methanone] | 1320 nM | 645 nM | 37.1 nM | 4230 nM
7 | CCOC1CC1C(=O)N1C2CCC1CN(c1ncnn3cc(-c4cnn(C(F)F)c4)cc13)C2 (stereo not shown) [Example 35, (3-(6-(1-(difluoromethyl)-1H-pyrazol-4-yl)pyrrolo[2,1-f][1,2,4]triazin-4-yl)-3,8-diazabicyclo[3.2.1]octan-8-yl)(2-ethoxycyclopropyl)methanone trifluoroacetate] | 10000 nM | 4660 nM | 856 nM | 10000 nM
8 | O=C([C@@H]1CC1(F)F)N1C2CCC1CN(c1ccnn3cc(-c4cnn(C(F)(F)F)c4)cc13)C2 [Example 19, ((S)-2,2-difluorocyclopropyl)(3-(6-(1-(trifluoromethyl)-1H-pyrazol-4-yl)pyrrolo[1,2-b]pyridazin-4-yl)-3,8-diazabicyclo[3.2.1]octan-8-yl)methanone] | 29 nM | 34 nM | 2.1 nM | 518 nM
9 | Cn1cc(-c2cc3c(N4CC5CCC(C4)N5S(=O)(=O)C4CC4)ncnn3c2)cn1 [Example 187, 4-(8-(cyclopropylsulfonyl)-3,8-diazabicyclo[3.2.1]octan-3-yl)-6-(1-methyl-1H-pyrazol-4-yl)pyrrolo[2,1-f][1,2,4]triazine] | 5410 nM | 9660 nM | 643 nM | 9430 nM
10 | Cn1cc(-c2cc3c(N4CC5CCC(C4)N5C(=O)C(C)(F)F)ncnn3c2)cn1 [Example 72, 2,2-difluoro-1-(3-(6-(1-methyl-1H-pyrazol-4-yl)pyrrolo[2,1-f][1,2,4]triazin-4-yl)-3,8-diazabicyclo[3.2.1]octan-8-yl)propan-1-one] | 2340 nM | 759 nM | 206 nM | 703 nM

Reference: patent publication US20240360157A1, “TYK2 INHIBITORS” (BIOGEN MA INC., priority 2021, published 2024)
